In the first test the test system is HCT-8. The experiment in a line: Cytotoxicity against human HCT8 cells after 96 hrs by sulforhodamine B assay. It counts as functional, cell-based. On the technique in general: The SRB assay estimates cell density from bound dye.
The compound `COC(=O)[C@@]1(C)CC[C@]2(C)CC[C@]3(C)C(=CC(=O)[C@@H]4[C@@]5(C)CC[C@H](OC(=O)CNCCCCN)C(C)(C)[C@@H]5CC[C@]43C)[C@@H]2C1` yielded an IC50 of 1.51 µmol.

The compound `COC(=O)[C@@]1(C)CC[C@]2(C)CC[C@]3(C)C(=CC(=O)[C@@H]4[C@@]5(C)CC[C@H](OC(=O)CNCCCCCCCN)C(C)(C)[C@@H]5CC[C@]43C)[C@@H]2C1` registered an IC50 of 0.89 µmol.

Test system in a further test: not listed separately
The experiment in a line: Cytotoxicity against human Lipo cells after 96 hrs by sulforhodamine B assay. It is filed as functional, cell-based.
Compound `COC(=O)[C@@]1(C)CC[C@]2(C)CC[C@]3(C)C(=CC(=O)[C@@H]4[C@@]5(C)CC[C@H](OC(=O)CNCCCCN)C(C)(C)[C@@H]5CC[C@]43C)[C@@H]2C1` gave an IC50 of 2.57 µmol.

Compound `COC(=O)[C@@]1(C)CC[C@]2(C)CC[C@]3(C)C(=CC(=O)[C@@H]4[C@@]5(C)CC[C@H](OC(=O)CNCCCCCCCN)C(C)(C)[C@@H]5CC[C@]43C)[C@@H]2C1` yielded an IC50 of 1.44 µmol.

Test system in the next test: not listed separately
The experiment in a line: Cytotoxicity against human 518A2 cells after 96 hrs by sulforhodamine B assay. It is filed as functional, cell-based.
In turn, `COC(=O)[C@@]1(C)CC[C@]2(C)CC[C@]3(C)C(=CC(=O)[C@@H]4[C@@]5(C)CC[C@H](OC(=O)CNCCCCN)C(C)(C)[C@@H]5CC[C@]43C)[C@@H]2C1` showed an IC50 of 2.55 µmol.

As for `COC(=O)[C@@]1(C)CC[C@]2(C)CC[C@]3(C)C(=CC(=O)[C@@H]4[C@@]5(C)CC[C@H](OC(=O)CNCCCCCCCN)C(C)(C)[C@@H]5CC[C@]43C)[C@@H]2C1`, the IC50 turned out to be 1.27 µmol.

The test system of another test is SW-1736. As to the kind of experiment: Cytotoxicity against human SW1736 cells after 96 hrs by sulforhodamine B assay. It is filed as functional, cell-based.
`COC(=O)[C@@]1(C)CC[C@]2(C)CC[C@]3(C)C(=CC(=O)[C@@H]4[C@@]5(C)CC[C@H](OC(=O)CNCCCCN)C(C)(C)[C@@H]5CC[C@]43C)[C@@H]2C1` yielded an IC50 of 3.3 µmol.

Compound `COC(=O)[C@@]1(C)CC[C@]2(C)CC[C@]3(C)C(=CC(=O)[C@@H]4[C@@]5(C)CC[C@H](OC(=O)CNCCCCCCCN)C(C)(C)[C@@H]5CC[C@]43C)[C@@H]2C1` had an IC50 of 2.24 µmol.

The test system of a further test is A549. The experiment in a line: Cytotoxicity against human A549 cells after 96 hrs by sulforhodamine B assay. It is filed as functional, cell-based.
In the case of `COC(=O)[C@@]1(C)CC[C@]2(C)CC[C@]3(C)C(=CC(=O)[C@@H]4[C@@]5(C)CC[C@H](OC(=O)CNCCCCN)C(C)(C)[C@@H]5CC[C@]43C)[C@@H]2C1`, the IC50 turned out to be 3.31 µmol.

`COC(=O)[C@@]1(C)CC[C@]2(C)CC[C@]3(C)C(=CC(=O)[C@@H]4[C@@]5(C)CC[C@H](OC(=O)CNCCCCCCCN)C(C)(C)[C@@H]5CC[C@]43C)[C@@H]2C1` registered an IC50 of 2.21 µmol.

The test system of the next test is MCF7. The experiment in a line: Cytotoxicity against human MCF7 cells after 96 hrs by sulforhodamine B assay. It is filed as functional, cell-based.
The compound `COC(=O)[C@@]1(C)CC[C@]2(C)CC[C@]3(C)C(=CC(=O)[C@@H]4[C@@]5(C)CC[C@H](OC(=O)CNCCCCN)C(C)(C)[C@@H]5CC[C@]43C)[C@@H]2C1` gave an IC50 of 2.45 µmol.

Compound `COC(=O)[C@@]1(C)CC[C@]2(C)CC[C@]3(C)C(=CC(=O)[C@@H]4[C@@]5(C)CC[C@H](OC(=O)CNCCCCCCCN)C(C)(C)[C@@H]5CC[C@]43C)[C@@H]2C1` had an IC50 of 0.98 µmol.

In a further test the test system is SW480. The experiment in a line: Cytotoxicity against human SW480 cells after 96 hrs by sulforhodamine B assay. It counts as functional, cell-based.
Compound `COC(=O)[C@@]1(C)CC[C@]2(C)CC[C@]3(C)C(=CC(=O)[C@@H]4[C@@]5(C)CC[C@H](OC(=O)CNCCCCN)C(C)(C)[C@@H]5CC[C@]43C)[C@@H]2C1` showed an IC50 of 2.54 µmol.

Regarding `COC(=O)[C@@]1(C)CC[C@]2(C)CC[C@]3(C)C(=CC(=O)[C@@H]4[C@@]5(C)CC[C@H](OC(=O)CNCCCCCCCN)C(C)(C)[C@@H]5CC[C@]43C)[C@@H]2C1`, the IC50 came out at 2.24 µmol.

The test system of the next test is HT-29. As to the kind of experiment: Cytotoxicity against human HT-29 cells after 96 hrs by sulforhodamine B assay. It counts as functional, cell-based.
Turning to `COC(=O)[C@@]1(C)CC[C@]2(C)CC[C@]3(C)C(=CC(=O)[C@@H]4[C@@]5(C)CC[C@H](OC(=O)CNCCCCN)C(C)(C)[C@@H]5CC[C@]43C)[C@@H]2C1`, the IC50 was 1.69 µmol.

In the case of `COC(=O)[C@@]1(C)CC[C@]2(C)CC[C@]3(C)C(=CC(=O)[C@@H]4[C@@]5(C)CC[C@H](OC(=O)CNCCCCCCCN)C(C)(C)[C@@H]5CC[C@]43C)[C@@H]2C1`, the IC50 amounted to 0.86 µmol.

Another test deals with 8505C. The experiment in a line: Cytotoxicity against human 8505C cells after 96 hrs by sulforhodamine B assay. It is filed as functional, cell-based.
For the compound `COC(=O)[C@@]1(C)CC[C@]2(C)CC[C@]3(C)C(=CC(=O)[C@@H]4[C@@]5(C)CC[C@H](OC(=O)CNCCCCN)C(C)(C)[C@@H]5CC[C@]43C)[C@@H]2C1`, the IC50 stood at 2.12 µmol.

For `COC(=O)[C@@]1(C)CC[C@]2(C)CC[C@]3(C)C(=CC(=O)[C@@H]4[C@@]5(C)CC[C@H](OC(=O)CNCCCCCCCN)C(C)(C)[C@@H]5CC[C@]43C)[C@@H]2C1`, the IC50 was 2.13 µmol.

Test system in another test: not listed separately
As to the kind of experiment: Cytotoxicity against human A253 cells after 96 hrs by sulforhodamine B assay. It counts as functional, cell-based.
On to `COC(=O)[C@@]1(C)CC[C@]2(C)CC[C@]3(C)C(=CC(=O)[C@@H]4[C@@]5(C)CC[C@H](OC(=O)CNCCCCN)C(C)(C)[C@@H]5CC[C@]43C)[C@@H]2C1`, for which the IC50 stood at 2.56 µmol.

Compound `COC(=O)[C@@]1(C)CC[C@]2(C)CC[C@]3(C)C(=CC(=O)[C@@H]4[C@@]5(C)CC[C@H](OC(=O)CNCCCCCCCN)C(C)(C)[C@@H]5CC[C@]43C)[C@@H]2C1` came in with an IC50 of 1.74 µmol.

A further test deals with FaDu. The experiment in a line: Cytotoxicity against human FADU cells after 96 hrs by sulforhodamine B assay. It counts as functional, cell-based.
Turning to `COC(=O)[C@@]1(C)CC[C@]2(C)CC[C@]3(C)C(=CC(=O)[C@@H]4[C@@]5(C)CC[C@H](OC(=O)CNCCCCN)C(C)(C)[C@@H]5CC[C@]43C)[C@@H]2C1`, the IC50 worked out at 3.51 µmol.

In turn, `COC(=O)[C@@]1(C)CC[C@]2(C)CC[C@]3(C)C(=CC(=O)[C@@H]4[C@@]5(C)CC[C@H](OC(=O)CNCCCCCCCN)C(C)(C)[C@@H]5CC[C@]43C)[C@@H]2C1` yielded an IC50 of 2.2 µmol.

The test system of a further test is DLD-1. As to the kind of experiment: Cytotoxicity against human DLD1 cells after 96 hrs by sulforhodamine B assay. It counts as functional, cell-based.
`COC(=O)[C@@]1(C)CC[C@]2(C)CC[C@]3(C)C(=CC(=O)[C@@H]4[C@@]5(C)CC[C@H](OC(=O)CNCCCCN)C(C)(C)[C@@H]5CC[C@]43C)[C@@H]2C1`: the IC50 came to 2.66 µmol.

The compound `COC(=O)[C@@]1(C)CC[C@]2(C)CC[C@]3(C)C(=CC(=O)[C@@H]4[C@@]5(C)CC[C@H](OC(=O)CNCCCCCCCN)C(C)(C)[C@@H]5CC[C@]43C)[C@@H]2C1` showed an IC50 of 1.25 µmol.

In the next test the test system is HCT-116. The experiment in a line: Cytotoxicity against human HCT116 cells after 96 hrs by sulforhodamine B assay. It is filed as functional, cell-based.
In turn, `COC(=O)[C@@]1(C)CC[C@]2(C)CC[C@]3(C)C(=CC(=O)[C@@H]4[C@@]5(C)CC[C@H](OC(=O)CNCCCCN)C(C)(C)[C@@H]5CC[C@]43C)[C@@H]2C1` yielded an IC50 of 2.41 µmol.

On to `COC(=O)[C@@]1(C)CC[C@]2(C)CC[C@]3(C)C(=CC(=O)[C@@H]4[C@@]5(C)CC[C@H](OC(=O)CNCCCCCCCN)C(C)(C)[C@@H]5CC[C@]43C)[C@@H]2C1`, for which the IC50 came out at 1.7 µmol.

A further test has as its system A2780. As to the kind of experiment: Cytotoxicity against human A2780 cells after 96 hrs by sulforhodamine B assay. It is filed as functional, cell-based.
As for `COC(=O)[C@@]1(C)CC[C@]2(C)CC[C@]3(C)C(=CC(=O)[C@@H]4[C@@]5(C)CC[C@H](OC(=O)CNCCCCN)C(C)(C)[C@@H]5CC[C@]43C)[C@@H]2C1`, the IC50 stood at 2.43 µmol.

Compound `COC(=O)[C@@]1(C)CC[C@]2(C)CC[C@]3(C)C(=CC(=O)[C@@H]4[C@@]5(C)CC[C@H](OC(=O)CNCCCCCCCN)C(C)(C)[C@@H]5CC[C@]43C)[C@@H]2C1` showed an IC50 of 1.14 µmol.

These data come from ChEMBL document CHEMBL1629466, “Synthesis and biological activity of some antitumor active derivatives from glycyrrhetinic acid” (Eur J Med Chem, 2010).
